Legend:
[1] = tested on: Feces samples from 20 persons; assay: Incubation of homogenized feces samples with fructose and minerals, gas-meter (Example 3); set-up: species or system human; details: 1 g fructose per 100 g of feces; for reduction in the amount of gas, in words: 20 feces samples; for amounts of gas: incubated at 37°, control 150 ml
Method: The incubation containers were all added with 1 g fructose per 100 g of feces, and additionally with 1. Selenium 20 μg; 2. 40 μg tungsten, 3. […] 20 μg Selenium plus 40 μg molybdenum; 6. 40 μg Selenium plus 20 μg tungsten plus 1 drop multivitamin solution “Multibionta”, 7. 40 μg Selenium plus 20 μg tungsten plus 1 drop multivitamin solution “Multibionta” plus 1 mg of iron plus 20 μg nickel. A control tank was added only with fructose.
The incubation containers were fitted with a gas-meter, sealed gas-tight and incubated at 37°.

[2] = tested on: meteorism; assay: Person with meteorism after fiber-rich meals (Examples 15 and 16); assay type: in vivo, human; details: 1.5 mg three times daily in water, after one week of treatment
Method: A person who suffers from meteorism after eating fiber-rich meals is treated three times daily with 1.5 mg of sodium tungstate, which is dissolved in water administered with the drinking fluid during the main meals.
A person who suffers from meteorism after eating fiber-rich meals is treated three times daily with 1.5 mg of sodium tungstate, which is dissolved in 100 ml water with the addition of 100 mg phytic acid and is allowed to rest for 30 minutes, and is administered to the main meals with the drinking fluid.

Compound | reduction in the amount of gas, in words [1] | amounts of gas [1] | meteorism [2]
[W] [W, tungsten] | significant gas reduction | 100 mL | –
[Na+].[Na+].[O]=[W](=[O])([O-])[O-] [sodium tungstate] | – | – | significantly decreases
Selenium | significant gas reduction | 110 mL | –

Source: US20100247489A1, “USE OF A COMPOSITION MADE OF MINERAL NUTRIENTS AND OPTIONALLY ACETOGENIC AND/OR BUTYROGENIC BACTERIA IN ORDER TO AVOID OR REDUCE THE FORMATION OF GAS IN THE LARGE INTESTINE OF A MAMMAL AND THE RESULTING ABDOMINAL PROBLEMS” (priority 2006, published 2010)
